Tests used:
[1] = tested on: siRNA-transfected RWPE-1 cells; assay: siRNA transfection (NLRP3 or AR knockdown) with qRT-PCR in RWPE-1 cells; type: cell-based, human; settings: for NLRP3 level (mRNA) in AR siRNA-transfected cells / AR level (mRNA) in NLRP3 siRNA-transfected cells: DHT stimulation, with or without 100 μM MitoQ; for NLRP3 level (mRNA) in AR siRNA-transfected cells: FIG. 3E; for AR level (mRNA) in NLRP3 siRNA-transfected cells: FIG. 3D
Procedure: (§1) Total RNA was isolated using Easy-Blue® reagent (iNtRON Biotechnology, Inc., Gyeonggi, Korea) and transcribed into complementary DNA (cDNA) according to the manufacturer's instructions. Oligonucleotide primers (Table 1) were purchased from Bioneer Corporation (Daejeon, Korea). qRT-PCR was performed according to the known method.
The RWPE-1 cells were transfected with siRNA (Bioneer Corporation) or pmaxGFP™ vector using a 4D-Nucleofector™ system (Lonza, Basel, Switzerland). The following siRNA nucleotide sequences were used: NLRP3 siRNA, […]=tt(1-AS) (SEQ ID NO.: 39) and […]=tt (1-AA) (SEQ ID NO.: 40) and AR siRNA, […]=tt (6-AS) (forward) (SEQ ID NO.: 41) and […]=tt (6-AA) (reverse) (SEQ ID NO.: 42). After four hours of incubation, the cells were treated in the presence or absence of MitoQ 100 μM. The effect of NLRP3 or AR knockdown was detected using qRT-PCR.

[2] = tested on: DHT-stimulated RWPE-1 cells; assay: Western blot analysis in DHT-stimulated RWPE-1 cells; type: cell-based, human; settings: DHT-stimulated RWPE-1, MitoQ 25, 50, 100 μM
Procedure: (§2) The RWPE-1 cells were cultured in a keratinocyte serum-free medium supplemented with 0.05 mg/mL bovine pituitary extract, 5 ng/mL human recombinant epidermal growth factor, and antibiotic-antimycotic solution (Gibco®, Big Cabin, OK, USA). The cells were cultured in a humidified environment at 37° C. and 5% CO2. The cells were cultured in a serum-free medium to block the effects of autocrine androgens.
(§3) Total protein was extracted from the RWPE-1 cells and rat prostate tissues, and a western blot analysis was performed. An antibody against AR (Cat. No. sc-7305) was purchased from Santa Cruz Biotechnology, Inc. (TX, USA). Boster Biological Technology (CA, USA) provided an antibody against a prostate-specific antigen (PSA; Cat. No. PB9259). An antibody against caspase-3 (Cat. No. #9661) was purchased from Cell Signaling Technology. Novus Biologicals (CO, USA) provided an antibody against NLRP3 (Cat. No. NBP2-12446). An antibody against IL-1β (Cat. No. 2105) was purchased from Abcam (Cambridge, UK).

[3] = tested on: DHT-stimulated RWPE-1 cells; assay: ATP determination assay in DHT-stimulated RWPE-1 cells; type: cell-based, human; settings: DHT-stimulated RWPE-1, MitoQ 25, 50, 100 μM, dose-dependent; FIG. 2F
[4] = tested on: testosterone-induced BPH rat model; assay: Testosterone-induced BPH rat model, prostate size and weight; type: in vivo
Description: (§4) Six-week-old male Sprague-Dawley rats (n=40; 200 +20 g) were purchased from Daehan Biolink Co. (Daejeon, Korea). The animals were randomly allocated, four rats in each cage, and housed in accordance with the guidelines for the care and use of laboratory animals adopted and promulgated by Sangji University according to the requirements established by the National Institutes of Health. All experimental protocols were approved by the Institutional Animal Care and Use Committee (IACUC) of Sangji University before the initiation of the study (IACUC Animal Approval Protocol #2018-18). The rats were acclimatized to laboratory conditions for one week before initiating the experiment.
(§5) The rats in the control group were incised and sutured without removing the testicles following anesthesia using zoletil 50 (intraperitoneal injection, 10 mg/kg). […] Twenty-four hours after the final administration, all rats were euthanized following anesthesia with zoletil 50 (i.p., 20 mg/kg). Blood samples were drawn through cardiac puncture, and serum was obtained via centrifugation and stored at −80° C.

RWPE-1 cells = assay: CCK-8 assay, viability of MitoQ-treated RWPE-1 cells; type: cell-based, human; settings: without DHT, 24 h, FIG. 1B
Procedure: The normal human prostate epithelial cell line, RWPE-1, was obtained from the American Type Culture Collection (Manassas, VA, USA).
as §2
(§6) The cell viability and proliferation were measured using the Cell Counting Kit-8 (CCK-8, Dojindo Molecular Technologies, Inc., D.C., USA). The RWPE-1 cells were plated to 96-well plates (1×10^5 cells/well) and incubated for 24 h. […] After the treatment, the CCK-8 solution was added to each well and incubated for four hours. The number of viable cells was monitored by measuring absorbance at 450 nm using an Epoch microplate reader (Biotek, Winooski, VT, USA).

[5] = tested on: DHT-stimulated RWPE-1 cells; assay: CCK-8 assay, RWPE-1 cell proliferation under DHT stimulation; type: cell-based, human; settings: 10 nM DHT, 24 h, FIG. 1C
Procedure: as §2, §6

[6] = tested on: testosterone-induced BPH rat model; assay: Histological analysis (H&E) of prostate tissue of rats with BPH; type: in vivo; settings: MitoQ 5, 25 mg/kg/day; Saw 100 mg/kg/day p.o.; FIGS. 4C, 4D
Description: as §4, §5
Prostate tissues from each group were fixed in 4% formalin and embedded in paraffin. The tissues were cut into 4-μm sections. […] The thickness of the epithelium in the prostate tissues was measured using the Leica Application Suite software (LAS ver. 3.3.0, Leica Microsystems, Inc., Buffalo Grove, IL, USA).

[7] = tested on: DHT-stimulated RWPE-1 cells; assay: Mitochondrial activity and mtROS levels (MitoTracker, MitoSOX); type: cell-based, human; settings: DHT-stimulated RWPE-1, 100 μM MitoQ, 24 h; FIG. 1F
[8] = tested on: testosterone-induced BPH rat model; assay: Serum DHT and testosterone measurement (ELISA) in rats with BPH; type: in vivo
Description: as §4, §5
The serum DHT and testosterone levels were quantified using commercial ELISA kits (Cusabio, TX, USA). The assays were performed according to the manufacturer's instructions.

[9] = tested on: DHT-stimulated RWPE-1 cells; assay: Immunofluorescence (8OHdG, NLRP3, AR) in DHT-stimulated RWPE-1 cells; type: cell-based, human; settings: DHT-stimulated RWPE-1, MitoQ 25, 50, 100 μM
Procedure: as §2
Thereafter, the cells were washed and incubated with fluorescein isothiocyanate (FITC)-conjugated anti-mouse or tetramethylrhodamine (TRITC)-conjugated anti-rabbit secondary antibodies. Nuclei were stained with 4′,6-diamidino-2-phenylindole (Life Technologies). Images were captured using an optical microscope (ECLIPSE Ni-U, Nikon, Tokyo, Japan).

[10] = tested on: DHT-stimulated RWPE-1 cells; assay: qRT-PCR mRNA expression in DHT-stimulated RWPE-1 cells; type: cell-based, human; settings: for mRNA level of HO-1 and GPX-1: FIG. 1E
Procedure: as §2, §1

AR (PDB ID: 2AMA) = molecular target: T1, AR (PDB ID: 2AMA) (Homo sapiens, UniProt P10275); assay: Docking simulation (AutoDock Vina v1.1.2) on AR
T1 sequence (P10275 664-920 limits assumed): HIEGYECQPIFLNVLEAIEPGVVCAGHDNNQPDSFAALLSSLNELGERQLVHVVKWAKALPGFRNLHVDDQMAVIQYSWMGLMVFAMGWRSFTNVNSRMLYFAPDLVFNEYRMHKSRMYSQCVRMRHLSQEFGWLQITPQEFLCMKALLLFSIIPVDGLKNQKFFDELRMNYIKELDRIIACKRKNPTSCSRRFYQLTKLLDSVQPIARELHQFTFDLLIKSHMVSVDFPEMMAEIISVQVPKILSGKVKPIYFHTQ

[11] = tested on: testosterone-induced BPH rat model; assay: Western blot of prostate tissue of rats with BPH; type: in vivo
Procedure: as §3, §4, §5

[12] = tested on: testosterone-induced BPH rat model; assay: qRT-PCR mRNA level in prostate of rats with BPH; type: in vivo
Procedure: as §1, §4, §5

[13] = tested on: testosterone-induced BPH rat model; assay: ROS assay on cells from rat prostate tissue; type: in vivo; settings: dose-dependent, MitoQ 5 and 25 mg/kg/day; FIG. 5C
Description: as §4, §5
After the male rats were euthanized, the prostate tissues were excised and treated with type I collagenase (Thermo Fisher Scientific, MA, USA) to isolate the cells. […] The cells were incubated for 30 minutes at 37° C. and detected using a Muse® Cell Analyzer (Merck, Darmstadt, Germany).

[14] = tested on: testosterone-induced BPH rat model; assay: PCNA IHC and qRT-PCR in prostate of rats with BPH; type: in vivo
Procedure: as §1, §4
(§7) The rats in the control group were incised and sutured without removing the testicles following anesthesia using zoletil 50 (intraperitoneal injection, 10 mg/kg). […] Twenty-four hours after the final administration, all rats were euthanized following anesthesia with zoletil 50 (i.p., 20 mg/kg). […]

[15] = tested on: DHT-stimulated RWPE-1 cells; assay: ATPase assay in DHT-stimulated RWPE-1 cells; type: cell-based, human; settings: DHT-stimulated RWPE-1, MitoQ 25, 50, 100 μM, 24 h; FIG. 2E
[16] = tested on: testosterone-induced BPH rat model; assay: Immunofluorescence (8-OHdG, NLRP3) of rat prostate tissue; type: in vivo
Procedure: After deparaffinization and rehydration, rat prostate tissue slides were incubated with anti-mouse 8-OHdG antibodies or anti-rabbit NLRP3 antibodies and visualized with FITC-conjugated anti-mouse and TRITC-conjugated anti-rabbit secondary antibodies, respectively.
The slides were mounted and detected using a Nikon X-Cite-Series 120 Q microscope (Nikon, Japan). The exposure parameters were the same for each sample.
as §4, §7

AR siRNA: siRNA CUCUCUUCACAGCCGAAGA=tt (SEQ ID NO.: 41) and UCUUCGGCUGUGAAGAGAG=tt (SEQ ID NO.: 42) (3' dTdT overhangs, further chemistry not given here)
NLRP3 level (mRNA) in AR siRNA-transfected cells [1]: significantly enhanced

NLRP3 siRNA: siRNA CGUGACAGUCCUUCUGGAA=tt (SEQ ID NO.: 39) and UUCCAGAAGGACUGUCACG=tt (SEQ ID NO.: 40) (3' dTdT overhangs, further chemistry not given here)
AR level (mRNA) in NLRP3 siRNA-transfected cells [1]: significantly increased
NLRP3 and IL-1β levels after siRNA transfection ([1]; DHT-stimulated RWPE-1, vs GFP-transfected cells, FIG. 2C): notably suppressed
NLRP3 mRNA expression after siRNA transfection ([1]; RWPE-1 cells, FIG. 2G): significant decrease

mitoquinone
SOD2 and catalase protein expression ([2]; FIG. 1G): significantly increased
PSA protein expression ([2]; FIG. 3C): considerably suppressed
ATP level [3]: significantly reduced
prostate weight (PW/BW ratio) ([4]; MitoQ 5, 25 mg/kg/day, Saw 100 mg/kg/day p.o., vs BPH, FIG. 4B): significant reduction
prostate size ([4]; MitoQ 5 and 25 mg/kg p.o., four weeks, FIG. 4A): reduced
concentration of MitoQ suppressing RWPE-1 cell proliferation (viability) (RWPE-1 cells): ≥ 25 μM
concentration of MitoQ significantly suppressing DHT-stimulated RWPE-1 cell proliferation [5]: ≥ 6.25 μM
thickened epithelium of prostate tissue [6]: significantly reduced
excessive production of mtROS [7]: suppressed
serum DHT overproduction ([8]; FIG. 7A): significantly suppressed
circulating (serum) testosterone level ([8]; MitoQ 25 mg/kg, Saw 100 mg/kg/day, FIG. 7E): significantly reduced
overexpression of 8OHdG (oxidative stress indicator) ([9]; FIG. 1D): notably suppressed
NLRP3 protein expression ([9]; FIG. 2A): significantly suppressed
AR overexpression (protein) ([9]; FIG. 3A): clearly suppressed
mRNA level of HO-1 and GPX-1 ([10]; DHT-stimulated RWPE-1, 100 μM MitoQ): significantly increased
mRNA expression of NLRP3, PYCARD, and IL-1β ([10]; DHT-stimulated RWPE-1, MitoQ 25, 50, 100 μM, FIG. 2B): significantly reduced
mRNA level of AR, 5α-reductase 2, and PSA ([10]; DHT-stimulated RWPE-1, MitoQ 25, 50, 100 μM, FIG. 3B): notably inhibited
mRNA level of HO-1 and GPX-1 ([10]; DHT-stimulated RWPE-1, MitoQ treatment): normalized
difference between the affinity values of DHT and MitoQ for AR (AR (PDB ID: 2AMA)): ~1 kcal/mol
overexpression of NLRP3, pro-caspase 1, cleaved caspase 1, and IL-1β proteins ([11]; FIGS. 6D, 6E): suppressed
expression of catalase and SOD2 (protein) ([11]; vs BPH groups, FIG. 5E): significantly higher
protein expression of PSA ([11]; vs BPH groups, FIG. 7D): decreased
AR level (mRNA) in NLRP3 siRNA-transfected cells [1]: notably downregulated
NLRP3 level (mRNA) in AR siRNA-transfected cells [1]: significantly suppressed
mRNA level of HO-1, SOD1, and PGC1α ([12]; FIG. 5D): upregulated
increased mRNA level of PYCARD and IL-1β ([12]; FIG. 6C): repressed
mRNA level of 5α-reductase 2, AR, and SRC-1 ([12]; FIGS. 7B, 7C): downregulated
intracellular ROS generation in prostate cells [13]: significantly suppressed
cellular proliferation inhibiting effect compared to Saw ([14]; MitoQ 25 mg/kg/day vs Saw 100 mg/kg/day): superior
overexpression of PCNA protein and mRNA ([14]; MitoQ 5, 25 mg/kg/day, Saw 100 mg/kg/day p.o., FIGS. 4C, 4E, 4F): clearly suppressed
ATPase-specific activity [15]: significantly suppressed
BPH-upregulated expression of NLRP3 ([16]; FIGS. 6A, 6B): reversed
intensity of 8-OHdG-positive staining ([16]; vs BPH groups, FIGS. 5A, 5B): significantly lower
